Results on 23 molecules are retold here after patent US9302991B2, “Arylamide derivatives as TTX-S blockers” (RaQualia Pharma Inc., priority 2010, dated 2016).

For assay [1], the target named is T1, human Nav1.3 channels (Homo sapiens, UniProt Q9NY46).
T1 construct: expressed in transfected cells; host or cells: HEK293
The experiment in a line: FRET assay, human Nav1.3 (EFS on FDSS). It counts as cell-based. To be noted: HEK293 cells expressing human Nav1.3, read-out: IC50 against Nav1.3. The method, boiled down: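 HEK293 cells expressing the channel, loaded with 10 microM CC2-DMPE then 15 microM DiSBAC2(3) plus 0.555 mM VABSC-1 in pH 7.4 HEPES buffer at room temperature. Membrane potential changes evoked by electrical field stimulation after compound addition; IC50 from 440 nm-normalized FRET ratios.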

Assay [2] deals with T2, human Nav1.7 channels (Homo sapiens, UniProt Q15858).
T2 construct: expressed in transfected cells; host or cells: CHO
T2 sequence (Q15858 whole entry): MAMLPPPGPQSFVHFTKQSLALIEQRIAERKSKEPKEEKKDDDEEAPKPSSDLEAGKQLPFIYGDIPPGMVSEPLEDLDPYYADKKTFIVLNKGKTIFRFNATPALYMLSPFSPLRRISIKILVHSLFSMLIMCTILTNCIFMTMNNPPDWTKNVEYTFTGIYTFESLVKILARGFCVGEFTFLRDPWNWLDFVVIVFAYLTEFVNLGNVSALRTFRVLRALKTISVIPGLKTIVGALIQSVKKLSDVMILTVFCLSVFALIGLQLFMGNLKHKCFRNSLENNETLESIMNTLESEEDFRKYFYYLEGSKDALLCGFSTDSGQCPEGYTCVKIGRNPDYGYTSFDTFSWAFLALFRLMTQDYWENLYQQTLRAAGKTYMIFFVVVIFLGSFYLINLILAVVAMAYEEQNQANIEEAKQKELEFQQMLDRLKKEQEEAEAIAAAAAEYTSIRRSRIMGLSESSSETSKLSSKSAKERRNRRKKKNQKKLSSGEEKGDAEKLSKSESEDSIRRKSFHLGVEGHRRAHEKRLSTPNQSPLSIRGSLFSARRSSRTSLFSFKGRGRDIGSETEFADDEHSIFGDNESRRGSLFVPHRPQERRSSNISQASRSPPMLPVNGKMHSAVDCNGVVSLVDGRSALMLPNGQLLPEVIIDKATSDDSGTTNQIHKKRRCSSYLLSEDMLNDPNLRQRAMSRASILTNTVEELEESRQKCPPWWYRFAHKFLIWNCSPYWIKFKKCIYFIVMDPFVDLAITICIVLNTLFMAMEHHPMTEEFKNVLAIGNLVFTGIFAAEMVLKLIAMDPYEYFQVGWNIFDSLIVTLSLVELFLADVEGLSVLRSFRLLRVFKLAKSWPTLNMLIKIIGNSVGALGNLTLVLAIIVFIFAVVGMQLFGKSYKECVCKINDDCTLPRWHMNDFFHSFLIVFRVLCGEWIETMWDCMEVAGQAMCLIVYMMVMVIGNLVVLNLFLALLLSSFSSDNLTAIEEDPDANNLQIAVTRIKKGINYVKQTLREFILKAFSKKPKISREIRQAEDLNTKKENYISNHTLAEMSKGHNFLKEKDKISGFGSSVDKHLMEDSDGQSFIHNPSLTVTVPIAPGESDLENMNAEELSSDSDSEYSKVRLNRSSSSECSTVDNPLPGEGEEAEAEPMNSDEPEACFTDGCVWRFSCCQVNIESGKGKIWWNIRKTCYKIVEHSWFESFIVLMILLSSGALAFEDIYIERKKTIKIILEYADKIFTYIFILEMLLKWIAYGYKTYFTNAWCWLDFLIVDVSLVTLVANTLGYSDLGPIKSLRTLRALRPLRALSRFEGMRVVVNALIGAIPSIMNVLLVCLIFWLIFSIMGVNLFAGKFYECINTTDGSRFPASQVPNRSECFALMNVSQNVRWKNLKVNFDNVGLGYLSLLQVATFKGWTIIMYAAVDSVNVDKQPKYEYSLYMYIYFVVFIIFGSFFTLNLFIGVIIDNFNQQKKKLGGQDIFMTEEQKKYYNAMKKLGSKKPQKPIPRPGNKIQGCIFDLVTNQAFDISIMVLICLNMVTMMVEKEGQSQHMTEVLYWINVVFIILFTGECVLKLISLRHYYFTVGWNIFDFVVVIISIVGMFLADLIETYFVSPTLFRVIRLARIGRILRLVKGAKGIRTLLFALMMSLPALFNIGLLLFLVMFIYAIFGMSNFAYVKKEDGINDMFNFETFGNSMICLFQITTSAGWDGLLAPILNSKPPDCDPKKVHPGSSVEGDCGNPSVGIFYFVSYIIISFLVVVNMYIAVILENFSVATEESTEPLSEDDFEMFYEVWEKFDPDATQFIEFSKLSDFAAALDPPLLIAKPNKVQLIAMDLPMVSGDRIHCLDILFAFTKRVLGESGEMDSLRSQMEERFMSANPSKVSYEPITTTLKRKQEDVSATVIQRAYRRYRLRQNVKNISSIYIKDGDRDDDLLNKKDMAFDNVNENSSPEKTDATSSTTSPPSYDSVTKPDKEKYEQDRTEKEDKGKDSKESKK
Kind of assay: FRET assay, human Nav1.7 (EFS on FDSS). It is filed as cell-based. To be noted: CHO cells expressing human Nav1.7, read-out: IC50 against Nav1.7. The method, boiled down:
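IC50 was derived from normalized 440 nm fluorescence ratios of the EFS-evoked membrane-potential response read on FDSS. Recombinant CHO cells were sequentially dye-loaded with coumarin/oxonol FRET pair at room temperature in pH 7.4 buffer before compound addition.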

Molecules are shown by their SMILES. pIC50: −log10 of the molar value.

One may read the pIC50 as the IC50 on a negative log10 scale, so that one unit is a factor of ten.

T1 sequence (Q9NY46 whole entry): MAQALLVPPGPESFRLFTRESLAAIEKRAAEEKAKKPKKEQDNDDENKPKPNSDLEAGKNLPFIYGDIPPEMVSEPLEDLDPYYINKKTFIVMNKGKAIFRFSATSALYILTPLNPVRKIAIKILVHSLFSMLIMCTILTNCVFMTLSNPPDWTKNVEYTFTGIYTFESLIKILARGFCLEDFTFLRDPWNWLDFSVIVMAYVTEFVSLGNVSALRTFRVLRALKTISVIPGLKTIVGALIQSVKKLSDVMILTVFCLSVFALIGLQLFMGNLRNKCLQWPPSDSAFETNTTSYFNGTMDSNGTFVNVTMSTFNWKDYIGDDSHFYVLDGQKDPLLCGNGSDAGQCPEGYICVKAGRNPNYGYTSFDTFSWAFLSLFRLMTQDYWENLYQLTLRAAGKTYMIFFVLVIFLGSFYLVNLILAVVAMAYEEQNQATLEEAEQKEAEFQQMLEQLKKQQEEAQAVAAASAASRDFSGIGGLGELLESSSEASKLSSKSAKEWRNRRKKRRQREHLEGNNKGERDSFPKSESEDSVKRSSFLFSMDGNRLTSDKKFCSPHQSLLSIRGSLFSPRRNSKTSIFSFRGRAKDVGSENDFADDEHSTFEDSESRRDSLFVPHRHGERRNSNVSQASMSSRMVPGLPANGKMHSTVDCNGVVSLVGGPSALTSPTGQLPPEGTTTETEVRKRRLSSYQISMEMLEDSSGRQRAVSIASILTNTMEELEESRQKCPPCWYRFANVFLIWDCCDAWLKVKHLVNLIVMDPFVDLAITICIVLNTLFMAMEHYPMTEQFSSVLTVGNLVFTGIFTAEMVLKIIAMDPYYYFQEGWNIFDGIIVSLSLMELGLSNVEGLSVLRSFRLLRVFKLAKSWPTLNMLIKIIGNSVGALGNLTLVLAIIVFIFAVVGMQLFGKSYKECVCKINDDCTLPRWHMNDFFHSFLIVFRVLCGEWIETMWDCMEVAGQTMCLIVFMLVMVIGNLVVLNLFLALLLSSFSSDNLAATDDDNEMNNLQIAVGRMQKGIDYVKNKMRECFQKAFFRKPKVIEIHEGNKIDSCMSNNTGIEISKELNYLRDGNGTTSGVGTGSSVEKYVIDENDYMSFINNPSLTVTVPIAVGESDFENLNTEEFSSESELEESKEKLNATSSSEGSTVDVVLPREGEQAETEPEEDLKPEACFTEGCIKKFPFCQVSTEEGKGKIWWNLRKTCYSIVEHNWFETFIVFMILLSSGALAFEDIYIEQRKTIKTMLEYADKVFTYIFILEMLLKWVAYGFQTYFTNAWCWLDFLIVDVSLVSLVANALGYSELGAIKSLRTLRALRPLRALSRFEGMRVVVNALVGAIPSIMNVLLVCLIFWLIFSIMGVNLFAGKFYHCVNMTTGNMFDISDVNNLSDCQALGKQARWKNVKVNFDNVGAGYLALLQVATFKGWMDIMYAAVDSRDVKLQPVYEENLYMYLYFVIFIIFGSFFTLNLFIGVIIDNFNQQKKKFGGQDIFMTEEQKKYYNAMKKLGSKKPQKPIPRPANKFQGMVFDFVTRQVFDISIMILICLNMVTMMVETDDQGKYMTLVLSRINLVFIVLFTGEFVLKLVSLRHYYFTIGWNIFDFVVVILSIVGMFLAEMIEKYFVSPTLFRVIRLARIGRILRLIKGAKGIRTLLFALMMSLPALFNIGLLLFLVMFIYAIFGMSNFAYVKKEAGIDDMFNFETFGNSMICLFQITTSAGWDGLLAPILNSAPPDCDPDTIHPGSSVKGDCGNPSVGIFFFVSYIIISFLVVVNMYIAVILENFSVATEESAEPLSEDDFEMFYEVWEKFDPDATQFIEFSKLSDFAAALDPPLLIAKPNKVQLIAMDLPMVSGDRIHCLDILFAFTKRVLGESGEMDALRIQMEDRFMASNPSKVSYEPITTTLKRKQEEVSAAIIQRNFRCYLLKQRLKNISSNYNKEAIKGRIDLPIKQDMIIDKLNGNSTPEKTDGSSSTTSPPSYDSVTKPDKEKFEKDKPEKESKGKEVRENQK

As for `O=C(NCc1cccc(OC(F)(F)F)c1)c1ccnc(NC(=O)C2CC2)c1` [Example 524, 2-(cyclopropanecarboxamido)-N-(3-(trifluoromethoxy)benzyl)isonicotinamide], the pIC50 in assay [1] and in assay [2] was above 6.00 throughout.

Consider `CC(=O)Nc1cc(C(=O)NCc2ccc(OC(F)(F)F)c(C)c2)cc(C)n1` [Example 808, 2-acetamido-6-methyl-N-(3-methyl-4-(trifluoromethoxy)benzyl)isonicotinamide], for which the negative logarithm of the IC50 (pIC50) in assay [1] and in assay [2] was above 6.00 each time.

In the case of `CCC(=O)Nc1nccc(C(=O)NCc2cnc(OCC(F)(F)F)c(Cl)c2)n1` [Example 410, N-((5-chloro-6-(2,2,2-trifluoroethoxy)pyridin-3-yl)methyl)-2-propionamidopyrimidine-4-carboxamide], the pIC50 in assay [1] and in assay [2] was above 6.00 in each case.

On to `COc1nc(OCC(F)(F)F)ccc1CNC(=O)c1ccnc(NC(=O)C(C)C)c1` [Example 171, 2-isobutyramido-N-((2-methoxy-6-(2,2,2-trifluoroethoxy)pyridin-3-yl)methyl)isonicotinamide], for which the pIC50 in assay [1] and in assay [2] was above 6.00 in each case.

Turning to `COc1nc(OCC(F)(F)F)ccc1CNC(=O)c1cc(C)nc(NC(=O)C(C)C)c1` [Example 494, 2-isobutyramido-N-((2-methoxy-6-(2,2,2-trifluoroethoxy)pyridin-3-yl)methyl)-6-methylisonicotinamide], the pIC50 in assay [1] and in assay [2] was above 6.00 in each case.

In the case of `CCc1cc(CNC(=O)c2cc(C)nc(NC(=O)C3CC3)c2)cnc1OCC(F)(F)F` [Example 825, 2-(cyclopropanecarboxamido)-N-((5-ethyl-6-(2,2,2-trifluoroethoxy)pyridin-3-yl)methyl)-6-methylisonicotinamide], the pIC50 in assay [1] and in assay [2] was above 6.00 in each case.

For `Cc1cc(C(=O)NCc2cccc(OC(F)(F)F)c2)cc(NC(=O)CC2CC2)n1` [Example 962, 2-(2-cyclopropylacetamido)-6-methyl-N-(3-(trifluoromethoxy)benzyl)isonicotinamide], the pIC50 in assay [1] and in assay [2] was above 6.00 in each case.

`Cc1cc(C(C)NC(=O)c2ccnc(NC(=O)C(C)C)n2)cnc1OCC(F)(F)F` (single isomer, unassigned) [Example 225, 2-isobutyramido-N-(1-(5-methyl-6-(2,2,2-trifluoroethoxy)pyridin-3-yl)ethyl)pyrimidine-4-carboxamide]: the pIC50 in assay [1] and in assay [2] was above 6.00 each time.

As to `Cc1cc(C(=O)NC(C)c2cnc(OCC(F)(F)F)c(C)c2)nc(NC(=O)C2CC2)n1` (single isomer, unassigned) [Example 228, 2-(cyclopropanecarboxamido)-6-methyl-N-(1-(5-methyl-6-(2,2,2-trifluoroethoxy)pyridin-3-yl)ethyl)pyrimidine-4-carboxamide], the pIC50 in assay [1] and in assay [2] was above 6.00 each time.

As for `CC(=O)Nc1cc(C(=O)NCc2ccc(OCC(F)(F)F)c(C)c2)cc(C)n1` [Example 792, 2-acetamido-6-methyl-N-(3-methyl-4-(2,2,2-trifluoroethoxy)benzyl)isonicotinamide], the pIC50 in assay [1] and in assay [2] was above 6.00 each time.

`CCC(=O)Nc1cc(C(=O)NC(C)c2cnc(OCC(F)(F)F)c(Cl)c2)ccn1` (single isomer, unassigned) [Example 69, N-(1-(5-chloro-6-(2,2,2-trifluoroethoxy)pyridin-3-yl)ethyl)-2-propionamidoisonicotinamide]: the pIC50 in assay [1] and in assay [2] was above 6.00 throughout.

Take `CCC(=O)Nc1cc(C(=O)NC(C)c2cnc(OCC(F)(F)F)c(Cl)c2)cc(C)n1` (single isomer, unassigned) [Example 130, N-(1-(5-chloro-6-(2,2,2-trifluoroethoxy)pyridin-3-yl)ethyl)-2-methyl-6-propionamidoisonicotinamide]: the pIC50 in assay [1] and in assay [2] was above 6.00 throughout.

Regarding `CCC(=O)Nc1cc(C(=O)NCc2ccc(OCC(F)(F)F)nc2)cc(C)n1` [Example 153, 2-methyl-6-propionamido-N-((6-(2,2,2-trifluoroethoxy)pyridin-3-yl)methyl)isonicotinamide], the pIC50 in assay [1] and in assay [2] was above 6.00 throughout.

Consider `CCC(=O)Nc1nc(C)cc(C(=O)NCc2ccc(OCC(F)(F)F)nc2OC)n1` [Example 180, N-((2-methoxy-6-(2,2,2-trifluoroethoxy)pyridin-3-yl)methyl)-6-methyl-2-propionamidopyrimidine-4-carboxamide], for which the pIC50 in assay [1] and in assay [2] was above 6.00 each time.

Regarding `CCC(=O)Nc1cc(C(=O)NC(C)c2cccc(OC(F)(F)F)c2)cc(C)n1` (single isomer, unassigned) [Example 134, 2-methyl-6-propionamido-N-(1-(3-(trifluoromethoxy)phenyl)ethyl)isonicotinamide], the pIC50 in assay [1] and in assay [2] was above 6.00 in each case.

Regarding `Cc1cc(C(=O)NCc2cnc(OCC(F)(F)C(F)F)c(C)c2)cc(NC(=O)C(C)C)n1` [Example 945, 2-isobutyramido-6-methyl-N-((5-methyl-6-(2,2,3,3-tetrafluoropropoxy)pyridin-3-yl)methyl)isonicotinamide], the pIC50 in assay [1] and in assay [2] was above 6.00 each time.

Turning to `Cc1cc(C(=O)NCc2ccc(OCC(F)(F)F)c(C)c2)cc(NC(=O)C2CC2)n1` [Example 831, 2-(cyclopropanecarboxamido)-6-methyl-N-(3-methyl-4-(2,2,2-trifluoroethoxy)benzyl)isonicotinamide], the pIC50 in assay [1] and in assay [2] was above 6.00 each time.

Take `CCC(=O)Nc1cc(C(=O)NC(C)c2cnc(OCC(F)F)c(C)c2)cc(C)n1` (single isomer, unassigned) [Example 554, N-(1-(6-(2,2-difluoroethoxy)-5-methylpyridin-3-yl)ethyl)-2-methyl-6-propionamidoisonicotinamide]: the pIC50 in assay [1] and in assay [2] was above 6.00 throughout.

In the case of `CCC(=O)Nc1cc(C(=O)NCc2cnc(OCC(F)(F)F)c(C)c2)ccn1` [Example 368, N-((5-methyl-6-(2,2,2-trifluoroethoxy)pyridin-3-yl)methyl)-2-propionamidoisonicotinamide], the pIC50 in assay [1] and in assay [2] was above 6.00 throughout.

Consider `CC(C)C(=O)Nc1cc(C(=O)NCc2ccc(OCC(F)(F)F)nc2)ccn1` [Example 169, 2-isobutyramido-N-((6-(2,2,2-trifluoroethoxy)pyridin-3-yl)methyl)isonicotinamide], for which the pIC50 in assay [1] and in assay [2] was above 6.00 each time.

On to `CCC(=O)Nc1cc(C(=O)N[C@H](C)c2cccc(C(F)(F)F)c2)cc(C)n1` (single isomer, unassigned) [Example 126], for which the pIC50 in assay [1] and in assay [2] was above 6.00 in each case.

Consider `CCC(=O)Nc1cc(C(=O)NCc2cnc(OCC(F)(F)F)c(Cl)c2)ccn1` [Example 94, N-((5-chloro-6-(2,2,2-trifluoroethoxy)pyridin-3-yl)methyl)-2-propionamidoisonicotinamide], for which the pIC50 in assay [1] and in assay [2] was above 6.00 in each case.

On to `CCC(=O)Nc1cc(C(=O)NCc2ccc(OCC(F)(F)F)c(C)c2)ccn1` [Example 789, N-(3-methyl-4-(2,2,2-trifluoroethoxy)benzyl)-2-propionamidoisonicotinamide], for which the negative-log IC50 (pIC50) in assay [1] and in assay [2] was above 6.00 in each case.
